“And” between values parts separate entries of the source, which are not always exact repeats. Equal values may be shown once. Read-outs that look alike come from different tables or passages of the source. Marks after values point to notes of the source that are not given here.
How the values were obtained:
Influenza virus [1] = test: Influences of drugs on virus-induced CPE (antiviral effective rate, MTT), influenza virus; format: cell-based; settings: Influenza virus, Vero cells, 100TCID50, drug at nearly the maximum non-cytotoxic concentration
Parainfluenza virus [2] = test: Influences of drugs on virus-induced CPE (antiviral effective rate, MTT), parainfluenza virus; format: cell-based; settings: Vero cells, 100TCID50, drug at nearly the maximum non-cytotoxic concentration
[3] = system: Coxsackie virus A16 (CoxA16); test: Influences of drugs on virus-induced CPE (antiviral effective rate, MTT), CoxA16; format: cell-based; settings: CoxA16, Vero cells, 100TCID50, drug at nearly the maximum non-cytotoxic concentration
[4] = system: respiratory syncytial virus (RSV); test: Influences of drugs on virus-induced CPE (antiviral effective rate, MTT), RSV; format: cell-based; settings: Vero cells, 100TCID50, drug at nearly the maximum non-cytotoxic concentration
[5] = system: herpes simplex virus I (HSV-I); test: Influences of drugs on virus-induced CPE (antiviral effective rate, MTT), HSV-I; format: cell-based; settings: Vero cells, 100TCID50, drug at nearly the maximum non-cytotoxic concentration
adenovirus (AdV) = test: Influences of drugs on virus-induced CPE (antiviral effective rate, MTT), ADV; format: cell-based; settings: Vero cells, 100TCID50, drug at nearly the maximum non-cytotoxic concentration
enterovirus EV71 = test: Influences of drugs on virus-induced CPE (antiviral effective rate, MTT), EV71; format: cell-based; settings: EV71, Vero cells, 100TCID50, drug at nearly the maximum non-cytotoxic concentration
[6] = system: Coxsackie virus B3 (CVB3); test: Influences of drugs on virus-induced CPE (antiviral effective rate, MTT), CVB3; format: cell-based; settings: CVB3, Vero cells, 100TCID50, drug at nearly the maximum non-cytotoxic concentration
influenza virus [7] = format: in vivo, Kunming mice; settings: for inhibitory effect on the virus and the mouse virus pneumonia caused by it (in words): in vivo; for Lung index (X ± S) / Lung index inhibition rate (%): mice infected with influenza virus, 5 days, n = 3
parainfluenza virus [8] = format: in vivo, Kunming mice; settings: mouse, in vivo
Vero cells = settings: 72 hours, MTT, Probit regression
From the text: Performing subculture on Vero cells for 1-2 days to form sheets and have clear boundaries, performing trypsin digestion when stereoscopic impression and diopter are high, completely absorbing digestive juice when needle tip shaped holes occur on cells surfaces, blowing away the cells with milliliters of culture solution, counting, diluting to the quantity of 5×10^7 cells/L with the culture solution (DMEM containing 10% fetal calf serum), inoculating in a 96-well culture plate, and enabling the cells to grow to a single layer.
Cytotoxicity test: drugs are diluted with a maintenance solution (DMEM containing 2% fetal calf serum) according to concentrations shown in Table 1-1, and are used for cytotoxicity determination.

influenza virus [9] = format: in vivo, Kunming mice; settings: lung suspension, mice infected with influenza virus, 5 days, n = 3
parainfluenza virus [10] = format: in vivo, Kunming mice; settings: lung suspension, mice infected with parainfluenza virus, 5 days, n = 3
[11] = High-dose group 10.0 mg/kg/d intragastric
[12] = Low-dose group 2.25 mg/kg/d intragastric
[13] = Medium-dose group 5.0 mg/kg/d intragastric

SMILES: COc1cc(C2OCC3C(c4ccc5c(c4)OCO5)OCC23)ccc1OC1OC(C(=O)O)C(O)C(O)C1O [Compound III, 33,34-Methylenedioxy phillygenin-8-O-β-D-glucuronide]
- antiviral effective rate (ER %) (Influenza virus [1]): 91.35** %
- antiviral effective rate (ER %) (Parainfluenza virus [2]): 92.22** %
- antiviral effective rate (ER %) [3]: 100.00** %
- antiviral effective rate (ER %) [4]: 86.18** %
- antiviral effective rate (ER %) [5]: 96.06** %
- antiviral effective rate (ER %) (adenovirus (AdV)): 22.17* %
- antiviral effective rate (ER %) (enterovirus EV71): 51.64%
- antiviral effective rate (ER %) [6]: 9.63%
- inhibitory effect on the virus and the mouse virus pneumonia caused by it (in words) (influenza virus [7]): obvious inhibitory effects
- inhibitory effect on the virus and the mouse virus pneumonia caused by it (in words) (parainfluenza virus [8]): obvious inhibitory effects
- Maximum non-cytotoxic concentration (TC0) (Vero cells): 0.0906 g/L
- Semi-cytotoxic concentration (TC50) (Vero cells): 435 µg/mL

SMILES: COc1ccc(C2OCC3C(c4ccc(OC5OC(C(=O)O)C(O)C(O)C5O)c(O)c4)OCC23)cc1OC (stereo not shown) [Compound II]
- antiviral effective rate (ER %) (Influenza virus [1]): 92.74** %
- antiviral effective rate (ER %) (Parainfluenza virus [2]): 90.13** %
- antiviral effective rate (ER %) [3]: 99.25** %
- antiviral effective rate (ER %) [4]: 81.14** %
- antiviral effective rate (ER %) [5]: 93.35** %
- antiviral effective rate (ER %) (adenovirus (AdV)): 20.46* %
- antiviral effective rate (ER %) (enterovirus EV71): 54.32%
- antiviral effective rate (ER %) [6]: 11.18%
- inhibitory effect on the virus and the mouse virus pneumonia caused by it (in words) (influenza virus [7]): obvious inhibitory effects
- inhibitory effect on the virus and the mouse virus pneumonia caused by it (in words) (parainfluenza virus [8]): obvious inhibitory effects
- Maximum non-cytotoxic concentration (TC0) (Vero cells): 0.103 g/L
- Semi-cytotoxic concentration (TC50) (Vero cells): 412 µg/mL

SMILES: COc1cc(C2OCC3C(c4ccc(OC5OC(C(=O)O)C(O)C(O)C5O)c(OC)c4)OCC23)ccc1O (stereo not shown) [Compound I]
- antiviral effective rate (ER %) (Influenza virus [1]): 95.81** %
- antiviral effective rate (ER %) (Parainfluenza virus [2]): 96.24** %
- antiviral effective rate (ER %) [3]: 100.00** %
- antiviral effective rate (ER %) [4]: 83.21** %
- antiviral effective rate (ER %) [5]: 91.23** %
- antiviral effective rate (ER %) (adenovirus (AdV)): 21.26* %
- antiviral effective rate (ER %) (enterovirus EV71): 52.15%
- antiviral effective rate (ER %) [6]: 10.16%
- Lung index (X ± S) (influenza virus [7]; [11]): 1.145 ± 0.037
- Lung index inhibition rate (%) (influenza virus [7]; [11]): 22.82%
- Lung index (X ± S) (influenza virus [7]; [12]): 1.225 ± 0.034
- Lung index inhibition rate (%) (influenza virus [7]; [12]): 17.85%
- Lung index (X ± S) (influenza virus [7]; [13]): 1.187 ± 0.028
- Lung index inhibition rate (%) (influenza virus [7]; [13]): 20.03%
- inhibitory effect on the virus and the mouse virus pneumonia caused by it (in words) (influenza virus [7]): obvious inhibitory effects
- Lung index (X ± S) (parainfluenza virus [8]): 1.277 ± 0.054 and 1.318 ± 0.028
- Lung index inhibition rate (%) (parainfluenza virus [8]): 19.73% and 16.94%
- inhibitory effect on the virus and the mouse virus pneumonia caused by it (in words) (parainfluenza virus [8]): obvious inhibitory effects
- Lung index (X ± S) (parainfluenza virus [8]; 13 mg/kg/day): 1.239 ± 0.037
- Lung index inhibition rate (%) (parainfluenza virus [8]; 13 mg/kg/day): 22.26%
- Hemagglutination titer (InX) (influenza virus [9]; [11]): 19.24 ± 0.513
- Inhibition rate (%) of hemagglutination titer (influenza virus [9]; [11]): 40.28%
- Hemagglutination titer (InX) (influenza virus [9]; [12]): 22.16 ± 1.270
- Inhibition rate (%) of hemagglutination titer (influenza virus [9]; [12]): 31.26%
- Hemagglutination titer (InX) (influenza virus [9]; [13]): 20.37 ± 0.285
- Inhibition rate (%) of hemagglutination titer (influenza virus [9]; [13]): 36.32%
- Hemagglutination titer (InX) (parainfluenza virus [10]; [11]): 19.68 ± 0.638
- Inhibition rate (%) of hemagglutination titer (parainfluenza virus [10]; [11]): 38.36%
- Hemagglutination titer (InX) (parainfluenza virus [10]; [12]): 21.62 ± 0.553
- Inhibition rate (%) of hemagglutination titer (parainfluenza virus [10]; [12]): 33.61%
- Hemagglutination titer (InX) (parainfluenza virus [10]; [13]): 20.47 ± 0.583
- Inhibition rate (%) of hemagglutination titer (parainfluenza virus [10]; [13]): 36.32%
- Maximum non-cytotoxic concentration (TC0) (Vero cells): 0.106 g/L
- Semi-cytotoxic concentration (TC50) (Vero cells): 482 µg/mL

— patent US10407455B2, “Phillygenin glucuronic acid derivative as well as preparation method and application thereof” (priority 2015, dated 2019)
